Measurements from paper PMC6329626 (British Journal of Pharmacology, 2018).
Like-named read-outs stand apart in the source and are kept apart here.

Key:
[1] = test system: CYP3A (flucloxacillin 5′-hydroxylation); test: Inhibition of 5′-HM-FLX formation by pooled HLM by CYP-specific inhibitors; type: biochemical, human; conditions: human, pooled human liver microsomes, probe flucloxacillin (formation of 5′-HM-FLX), 10 and 100 μM
pooled HLM [2] = test: Enzyme kinetics of 5′-HM-FLX formation from flucloxacillin by pooled HLM; type: in vitro ADME, human; conditions: 0.5 mg·mL^−1 pooled HLM, 10 min, Michaelis–Menten fit
HLM from 16 donors = type: in vitro ADME, human; conditions: for Pearson's r, FLX hydroxylation vs phenacetin O-deethylation: CYP1A2; for Pearson's r, FLX hydroxylation vs coumarin 7-hydroxylation: CYP2A6; for Pearson's r, FLX hydroxylation vs diclofenac 4′-hydroxylation: CYP2C9
[3] = read-out: Average Cmax in patients; patients taking 1000 mg orally; cited from earlier work
biliary epithelial cells = conditions: ref Lakehal et al., 2001; cited from earlier work
recombinant human CYP3A4 = recombinant human CYP3A4 (Homo sapiens, UniProt P08684); test: Enzyme kinetics of flucloxacillin hydroxylation by CYP3A4 Supersomes; conditions: 100 nM CYP3A4 Supersomes, 10 min
Sequence of recombinant human CYP3A4 (P08684 whole entry): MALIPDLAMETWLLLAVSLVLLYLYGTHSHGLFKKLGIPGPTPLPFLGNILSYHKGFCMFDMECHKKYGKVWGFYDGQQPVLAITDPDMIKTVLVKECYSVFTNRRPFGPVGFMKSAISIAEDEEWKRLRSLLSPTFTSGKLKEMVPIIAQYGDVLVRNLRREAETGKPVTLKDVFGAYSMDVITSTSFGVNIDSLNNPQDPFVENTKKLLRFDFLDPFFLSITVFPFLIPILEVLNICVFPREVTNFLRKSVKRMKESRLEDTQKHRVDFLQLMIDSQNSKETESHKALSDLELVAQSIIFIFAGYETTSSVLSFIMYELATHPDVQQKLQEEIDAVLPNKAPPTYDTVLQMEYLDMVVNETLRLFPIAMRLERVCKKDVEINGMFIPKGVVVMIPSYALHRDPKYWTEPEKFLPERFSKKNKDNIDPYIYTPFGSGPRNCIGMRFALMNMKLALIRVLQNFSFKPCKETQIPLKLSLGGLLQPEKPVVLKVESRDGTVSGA

pooled HLM [4] = test: Inhibition of 5′-HM-FLX formation by pooled HLM by CYP-specific inhibitors; type: biochemical, human; conditions: 10 μM inhibitor; pooled HLM
recombinant CYP3A7 = recombinant CYP3A7 (Homo sapiens, UniProt P24462); test: Inhibition by sulfaphenazole of CYP3A7 Supersomes; type: biochemical; conditions: testosterone 50 μM
[5] = molecular target: CYP3A4 (testosterone 6β-hydroxylation) in HLM (Homo sapiens, UniProt P08684); test: Inhibition by sulfaphenazole of testosterone hydroxylation in HLM; type: biochemical
Sequence of CYP3A4 (testosterone 6β-hydroxylation) in HLM (P08684 whole entry): as above

HLM [6] = conditions: 25 μM sulfaphenazole; ref Lakehal et al., 2001; cited from earlier work
HLM [7] = conditions: ref Towles et al., 2016; cited from earlier work
[8] = substrate: Cc1onc(-c2c(F)cccc2Cl)c1C(=O)N[C@@H]1C(=O)N2[C@@H]1SC(C)(C)[C@@H]2C(=O)O; test: cells, lysate or membranes named; type: in vitro ADME, human; conditions: other: 100 nM CYP3A7 Supersomes, 10 min; pH 7.4; 37.0 °C

Molecule: CC(=O)N1CCN(c2ccc(OCC3COC(Cn4ccnc4)(c4ccc(Cl)cc4Cl)O3)cc2)CC1 (stereo not shown) [ketoconazole]
- inhibition at 1 μM [1]: 50%

Molecule: Cc1onc(-c2c(F)cccc2Cl)c1C(=O)N[C@@H]1C(=O)N2[C@@H]1SC(C)(C)[C@@H]2C(=O)O [flucloxacillin]
- K M of 5′-HM-FLX formation (pooled HLM [2]): 284 ± 38 µM
- Vmax of 5′-HM-FLX formation (pooled HLM [2]): 30 ± 2 pmol·min^−1·mg^−1 protein
- Pearson's r, FLX hydroxylation vs phenacetin O-deethylation (HLM from 16 donors; 10 μM FLX): 0.04
- Pearson's r, FLX hydroxylation vs phenacetin O-deethylation (HLM from 16 donors; 100 μM FLX): 0.10
- Pearson's r, FLX hydroxylation vs coumarin 7-hydroxylation (HLM from 16 donors; 10 μM FLX): 0.45
- Pearson's r, FLX hydroxylation vs coumarin 7-hydroxylation (HLM from 16 donors; 100 μM FLX): 0.45
- Pearson's r, FLX hydroxylation vs amodiaquine N-deethylation (HLM from 16 donors; CYP2C8, 10 μM FLX): 0.50
- Pearson's r, FLX hydroxylation vs diclofenac 4′-hydroxylation (HLM from 16 donors; 10 μM FLX): 0.78
- Pearson's r, FLX hydroxylation vs diclofenac 4′-hydroxylation (HLM from 16 donors; 100 μM FLX): 0.58
- Pearson's r, FLX hydroxylation vs mephenytoin 4′-hydroxylation (HLM from 16 donors; CYP2C19, 10 μM FLX): 0.45
- Pearson's r, FLX hydroxylation vs midazolam 1′-hydroxylation (HLM from 16 donors; CYP3A4, 10 μM FLX): 0.58
- Pearson's r, FLX hydroxylation vs testosterone 6β-hydroxylation (HLM from 16 donors; CYP3A4, 10 μM FLX): 0.69
- Cmax [3]: 100 µM
- Cytotoxicity to isolated biliary epithelial cells (biliary epithelial cells): without effect
- K M of 5′-HM-FLX formation (recombinant human CYP3A4): 124 ± 15 µM

Molecule: COCCCC/C(=N\OCCN)c1ccc(C(F)(F)F)cc1 [fluvoxamine]
- Inhibition of 5′-HM-FLX formation (pooled HLM [4]): did not show significant inhibition

Molecule: Nc1ccc(S(=O)(=O)Nc2ccnn2-c2ccccc2)cc1 [sulfaphenazole]
- Inhibition of 6β-hydroxylation of testosterone (recombinant CYP3A7): not affected
- Inhibition of testosterone hydroxylation [5]: but not testosterone hydroxylation
- Inhibition of HLM-catalysed hydroxylation of flucloxacillin (HLM [6]): no inhibition
- Inhibition of bioactivation of hydroxylapatinib by HLM (HLM [7]): significantly inhibited

B1: recombinant human CYP3A7 (Homo sapiens) (protein)
chain: MDLIPNLAVETWLLLAVSLILLYLYGTRTHGLFKKLGIPGPTPLPFLGNALSFRKGYWTFDMECYKKYRKVWGIYDCQQPMLAITDPDMIKTVLVKECYSVFTNRRPFGPVGFMKNAISIAEDEEWKRIRSLLSPTFTSGKLKEMVPIIAQYGDVLVRNLRREAETGKPVTLKHVFGAYSMDVITSTSFGVSIDSLNNPQDPFVENTKKLLRFNPLDPFVLSIKVFPFLTPILEALNITVFPRKVISFLTKSVKQIKEGRLKETQKHRVDFLQLMIDSQNSKDSETHKALSDLELMAQSIIFIFAGYETTSSVLSFIIYELATHPDVQQKVQKEIDTVLPNKAPPTYDTVLQLEYLDMVVNETLRLFPVAMRLERVCKKDVEINGMFIPKGVVVMIPSYVLHHDPKYWTEPEKFLPERFSKKNKDNIDPYIYTPFGSGPRNCIGMRFALVNMKLALVRVLQNFSFKPCKETQIPLKLRFGGLLLTEKPIVLKAESRDETVSGA
- kcat [8]: 193 ± 7 pmol·min^−1·nmol^−1 P450
